According to US4175081A, “5-Substituted thiadiazole ureas” (priority 1977, dated 1979):

Assays:
Crabgrass (CG) [1] = test: Pre-emergence herbicide test; type: in vivo, Digitaria sanquinalis; settings: Digitaria sanguinalis, pre-emergence, 336 h; 8 lb/acre; two weeks after treatment
In short: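 Crabgrass (Digitaria sanquinalis) was surface seeded in 3' plastic pots of potting soil, covered with screened soil, and watered by sub-irrigation in greenhouse trays. Pots were seeded one day before spraying in a hood with a moving belt and fixed nozzle. Plants stayed in the greenhouse on sub-irrigation, and pre-emergence control was rated visually two weeks after treatment.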

[2] = test system: Yellow foxtail grass (YF); test: Pre-emergence herbicide test; type: in vivo, Setaria glauca; settings: Setaria, 336 h, 8 lb/acre, two weeks after treatment
In short: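 Visual rating of injury/control made two weeks after a pre-emergence spray of 8 or 4 lbs active per acre (38 gal/acre) onto pots seeded the previous day. Greenhouse watering by sub-irrigation only.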

Johnson grass (JG) [3] = test: Pre-emergence herbicide test; type: in vivo, Sorgum helepense; settings: Sorghum halepense, 336 h, 8 lb/acre, two weeks after treatment
In short: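 Visual injury or control rating two weeks post-treatment, after pre-emergence spray of 8 or 4 lbs active per acre (38 gal/acre) onto pots sown the previous day. Greenhouse watering by sub-irrigation only.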

Barnyard grass (BG) [4] = test: Pre-emergence herbicide test; type: in vivo; settings: Echinochloa crus-galli, 336 h, 8 lb/acre, two weeks after treatment
In short: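 Greenhouse pre-emergence spray test: pots seeded one day before treatment received compound at rates of 8 or 4 lb/acre (38 gal/acre). Visual injury/control scores for Echinochloa crus-galli taken at two weeks, with watering by sub-irrigation only.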

Amaranth pigweed (PW) [5] = test: Pre-emergence herbicide test; type: in vivo, Amaranthus retroflexus; settings: 336 h, 8 lb/acre, two weeks after treatment
In short: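 Visual injury or control ratings were made at two weeks on pre-emergence pots, sub-irrigated in the greenhouse. Seeds were sown a day before a hood spray delivering 8 lbs/acre (or 4 lbs/acre) of compound in 38 gallons per acre.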

Turnip (TP) [6] = test: Pre-emergence herbicide test; type: in vivo, Brassica sp.; settings: Brassica rapa, pre-emergence, 336 h; 8 lb/acre; two weeks after treatment
In short: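 In this pre-emergence greenhouse test, turnip was seeded on the surface of potting soil in 3' plastic pots, lightly covered with screened soil, and watered from below. One day later the pots were sprayed in a belt-fed spray hood. Watering continued only by sub-irrigation, and percent control was visually scored two weeks after treatment.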

Cotton (CT) [7] = test: Pre-emergence herbicide test; type: in vivo, Gossypium hirsutum var. DPL smooth leaf; settings: Gossypium hirsutum, 336 h, 8 lb/acre, two weeks after treatment
In short: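 Visual injury/control ratings were taken at two weeks post-spray. Pots seeded a day earlier received compound pre-emergence at 8 lbs/acre, or 4 lbs/acre, in a 38 gallon/acre spray volume, and were then held in the greenhouse, watered only from below.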

Corn (CN) [8] = test: Pre-emergence herbicide test; type: in vivo; settings: Zea mays, 336 h, 8 lb/acre, two weeks after treatment
In short: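 Visual injury/control ratings were made 2 weeks post-spray on corn pots seeded (4 seeds, seed-diameter depth) the day before treatment. Application was a belt-hood spray of 38 gal/acre delivering 8 lbs active per acre, with a 4 lbs/acre rate also formulated. Watering was by sub-irrigation throughout.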

Bean (BN) [9] = test: Pre-emergence herbicide test; type: in vivo, Phaseolus vulgaris var. Black Valentine; settings: Phaseolus vulgaris, 336 h, 8 lb/acre, two weeks after treatment
In short: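 Visual injury/control ratings were taken two weeks post-spray on sub-irrigated Phaseolus vulgaris var. Black Valentine. Pots were sown a day before treatment. Pre-emergence spray delivered 8 lbs actual compound per acre (or 4 lbs/acre) at 38 gallons per acre.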

Crabgrass (CG) [10] = test: Post-emergence herbicide test; type: in vivo, Digitaria sanquinalis; settings: Digitaria sanguinalis, post-emergence, 336 h, two weeks after treatment; for pest or weed control at 8966.8 g/ha: 8 lb/acre
In short: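 Crabgrass (Digitaria sanquinalis) was surface seeded individually in 3' plastic pots of potting soil, covered with screened soil, and watered by sub-irrigation in greenhouse trays. Planting was staggered so seedlings reached the target stage together. Post-emergence sprays were applied in a hood with a removable belt and fixed nozzle, and control was visually rated two weeks after treatment.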

[11] = test system: Yellow foxtail grass (YF); test: Post-emergence herbicide test; type: in vivo, Setaria glauca; settings: Setaria, 336 h, two weeks after treatment; for pest or weed control at 8966.8 g/ha: 8 lb/acre
In short: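 Visual rating of injury/control made 2 weeks post-spray. Seedlings at a uniform growth stage in soil-filled pots received a hood spray of 8 lbs/acre active compound, 38 gallons/acre volume, with a 4 lbs/acre rate also formulated. Watering was by sub-irrigation only.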

Johnson grass (JG) [12] = test: Post-emergence herbicide test; type: in vivo, Sorgum helepense; settings: Sorghum halepense, 336 h, two weeks after treatment; for pest or weed control at 8966.8 g/ha: 8 lb/acre
In short: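 Visual injury or control scores taken 2 weeks after a post-emergence spray of pot-grown plants. Application was 8 lbs/acre (or 4 lbs/acre) in 38 gal/acre. Plants were held in the greenhouse with sub-irrigation only.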

Barnyard grass (BG) [13] = test: Post-emergence herbicide test; type: in vivo; settings: Echinochloa crus-galli, 336 h, two weeks after treatment; for pest or weed control at 8966.8 g/ha: 8 lb/acre
In short: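 Greenhouse pot-grown barnyard grass seedlings sprayed post-emergence at 8 lbs active compound per acre (some at 4 lbs/acre) in 38 gallons per acre, then sub-irrigated. Injury or control rated visually two weeks after treatment.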

Amaranth pigweed (PW) [14] = test: Post-emergence herbicide test; type: in vivo, Amaranthus retroflexus; settings: 336 h, two weeks after treatment; for pest or weed control at 8966.8 g/ha: 8 lb/acre
In short: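 Visual injury or control ratings were made two weeks after spraying, with greenhouse watering by sub-irrigation only. Treatment was post-emergence, when pigweed seedlings had 1 or 2 true leaves, at 8 lbs active compound per acre (4 lbs/acre formulations also made) in a 38 gallons-per-acre spray volume.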

Turnip (TP) [15] = test: Post-emergence herbicide test; type: in vivo, Brassica sp.; settings: Brassica rapa, post-emergence, 336 h, two weeks after treatment; for pest or weed control at 8966.8 g/ha: 8 lb/acre
In short: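 A greenhouse post-emergence herbicide test on turnip. Seeds were sown on the surface of potting soil in 3' plastic pots, lightly covered with screened soil and watered from below. Planting was timed so seedlings had 1 or 2 true leaves above the cotyledons at spraying, done in a hood with a fixed nozzle. Control or injury was scored by eye after two weeks.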

Cotton (CT) [16] = test: Post-emergence herbicide test; type: in vivo, Gossypium hirsutum var. DPL smooth leaf; settings: Gossypium hirsutum, post-emergence, 336 h, two weeks after treatment; for pest or weed control at 8966.8 g/ha: 8 lb/acre
In short: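 This greenhouse post-emergence test measured how well spray treatments controlled cotton. Seedlings of Gossypium hirsutum var. DPL smooth leaf, with expanded cotyledons and a first true leaf 1' in length, were sprayed with 50 ml formulations in a belt-fed spray hood. They were then returned to the greenhouse and watered only by sub-irrigation. Injury was scored visually as % control after two weeks.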

Corn (CN) [17] = test: Post-emergence herbicide test; type: in vivo; settings: Zea mays, 336 h, two weeks after treatment; for pest or weed control at 8966.8 g/ha: 8 lb/acre
In short: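 Greenhouse seedlings grown in potting soil and sprayed post-emergence at 8 lbs compound/acre (formulations also made for 4 lbs/acre) in 38 gallons/acre spray volume. Watering by sub-irrigation only. Injury or control rated visually two weeks after treatment.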

Bean (BN) [18] = test: Post-emergence herbicide test; type: in vivo, Phaseolus vulgaris var. Black Valentine; settings: Phaseolus vulgaris, post-emergence, 336 h, two weeks after treatment; for pest or weed control at 8966.8 g/ha: 8 lb/acre
In short: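 Bean seedlings (Phaseolus vulgaris var. Black Valentine) were grown in potting soil in 3' pots until the primary leaves expanded. They were then sprayed under a hood with a removable belt and fixed nozzle, using 50 ml formulations. Afterward they were returned to the greenhouse and watered only by sub-irrigation. Percent control was judged visually two weeks after treatment.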

[19] = test system: variety of crops and weed species; test: Pre- and post-emergence herbicide tests, overall assessment of Tables III-VI; type: in vivo; settings: data of Tables III-VI
Method: All crop and weed species were planted individually in 3' plastic pots containing potting soil. Four seeds each of corn, cotton, and snapbeans were seeded to a depth equal to the diameter of the seed. All other species were surface seeded and sprinkled with screened soil in an amount sufficient to cover the seed. Immediately after planting, all pots were watered by sub-irrigation in greenhouse trays. Pots for the pre-emergence phase were seeded one day before treatment.
Compounds were tested at rates of application equivalent to 8 lbs. of actual compound per acre in a spray volume of 38 gallons per acre. Spray hood constants required to deliver the above volume are as follows:
Two weeks after treatment, pre- and post-emergence injury or control was visually rated, and the results were as shown in the following tables. Pre-emergence data are provided in TABLE III and post-emergence data are provided in TABLE IV, for compounds having the formula illustrated in TABLE I. Correspondingly, pre-emergence and post-emergence data, respectively, are set forth in TABLES V AND VI, for compounds having the formula illustrated in TABLE II.

## CN(C)C(=O)Nc1nnc(C(F)(F)F)s1 [Example 2, 1,1-Dimethyl-3-[5-Trifluoromethyl-2-(1,3,4-Thiadiazolyl)] Urea]
Crabgrass (CG) [1]
  pest or weed control at 8966.8 g/ha: 90%
[2]
  pest or weed control at 8966.8 g/ha: 90%
Johnson grass (JG) [3]
  pest or weed control at 8966.8 g/ha: 90%
Barnyard grass (BG) [4]
  pest or weed control at 8966.8 g/ha: 90%
Amaranth pigweed (PW) [5]
  pest or weed control at 8966.8 g/ha: 90%
Turnip (TP) [6]
  pest or weed control at 8966.8 g/ha: 100%
Cotton (CT) [7]
  pest or weed control at 8966.8 g/ha: 70%
Corn (CN) [8]
  pest or weed control at 8966.8 g/ha: 50%
Bean (BN) [9]
  pest or weed control at 8966.8 g/ha: 80%
Crabgrass (CG) [10]; 2 lb/acre
  pest or weed control: 100%
Crabgrass (CG) [10]; 4 lb/acre
  pest or weed control at 4483.4 g/ha: 80%
Crabgrass (CG) [10]
  pest or weed control at 8966.8 g/ha: 60%
[11]; 2 lb/acre
  pest or weed control: 90%
[11]; 4 lb/acre
  pest or weed control at 4483.4 g/ha: 90%
[11]
  pest or weed control at 8966.8 g/ha: 60%
Johnson grass (JG) [12]; 2 lb/acre
  pest or weed control: 90%
Johnson grass (JG) [12]; 4 lb/acre
  pest or weed control at 4483.4 g/ha: 30%
Johnson grass (JG) [12]
  pest or weed control at 8966.8 g/ha: 40%
Barnyard grass (BG) [13]; 2 lb/acre
  pest or weed control at 2241.7 g/ha: 90%
Barnyard grass (BG) [13]; 4 lb/acre
  pest or weed control at 4483.4 g/ha: 90%
Barnyard grass (BG) [13]
  pest or weed control at 8966.8 g/ha: 60%
Amaranth pigweed (PW) [14]; 2 lb/acre
  pest or weed control at 2241.7 g/ha: 100%
Amaranth pigweed (PW) [14]; 4 lb/acre
  pest or weed control at 4483.4 g/ha: 100%
Amaranth pigweed (PW) [14]
  pest or weed control at 8966.8 g/ha: 90%
Turnip (TP) [15]; 2 lb/acre
  pest or weed control at 2241.7 g/ha: 100%
Turnip (TP) [15]; 4 lb/acre
  pest or weed control at 4483.4 g/ha: 90%
Turnip (TP) [15]
  pest or weed control at 8966.8 g/ha: 80%
Cotton (CT) [16]; 2 lb/acre
  pest or weed control at 2241.7 g/ha: 100%
Cotton (CT) [16]; 4 lb/acre
  pest or weed control at 4483.4 g/ha: 90%
Cotton (CT) [16]
  pest or weed control at 8966.8 g/ha: 90%
Corn (CN) [17]; 2 lb/acre
  pest or weed control: 100%
Corn (CN) [17]; 4 lb/acre
  pest or weed control at 4483.4 g/ha: 100%
Corn (CN) [17]
  pest or weed control at 8966.8 g/ha: 100%
Bean (BN) [18]; 2 lb/acre
  pest or weed control at 2241.7 g/ha: 80%
Bean (BN) [18]; 4 lb/acre
  pest or weed control at 4483.4 g/ha: 70%
Bean (BN) [18]
  pest or weed control at 8966.8 g/ha: 60%
[19]
  herbicidal effectiveness / selectivity, in words: extremely effective when applied to a variety of crops and weed species

## CSc1nnc(N(C)C(=O)N(C)C)s1 [Example 5, 1,1,3-trimethyl-3-[5-methylthio-2-(1,3,4-thiadiazolyl)] urea]
Crabgrass (CG) [1]
  pest or weed control at 8966.8 g/ha: 100%
[2]
  pest or weed control at 8966.8 g/ha: 90%
Johnson grass (JG) [3]
  pest or weed control at 8966.8 g/ha: 50%
Barnyard grass (BG) [4]
  pest or weed control at 8966.8 g/ha: 80%
Amaranth pigweed (PW) [5]
  pest or weed control at 8966.8 g/ha: 100%
Turnip (TP) [6]
  pest or weed control at 8966.8 g/ha: 100%
Cotton (CT) [7]
  pest or weed control at 8966.8 g/ha: 90%
Corn (CN) [8]
  pest or weed control at 8966.8 g/ha: 70%
Bean (BN) [9]
  pest or weed control at 8966.8 g/ha: 90%
Crabgrass (CG) [10]
  pest or weed control at 8966.8 g/ha: 100%
[11]
  pest or weed control at 8966.8 g/ha: 100%
Johnson grass (JG) [12]
  pest or weed control at 8966.8 g/ha: 90%
Barnyard grass (BG) [13]
  pest or weed control at 8966.8 g/ha: 100%
Amaranth pigweed (PW) [14]
  pest or weed control at 8966.8 g/ha: 100%
Turnip (TP) [15]
  pest or weed control at 8966.8 g/ha: 100%
Cotton (CT) [16]
  pest or weed control at 8966.8 g/ha: 100%
Corn (CN) [17]
  pest or weed control at 8966.8 g/ha: 100%
Bean (BN) [18]
  pest or weed control at 8966.8 g/ha: 100%
[19]
  herbicidal effectiveness / selectivity, in words: extremely effective when applied to a variety of crops and weed species
